From patent US9302999B2, “Substituted triazoles as herbicides” (E. I. DU PONT DE NEMOURS AND COMPANY, priority 2012, dated 2016)

How the values were obtained:
Assay type in all cases: in vivo
[1] = test system: velvetleaf (Abutilon theophrasti); assay: Test A pre-/postemergence: velvetleaf; conditions: for Velvetleaf plant response rating: Postemergence; for Plant response rating, Velvetleaf: Preemergence
How it was run: (§1)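 Seeds were sown in loam/sand blend and sprayed preemergence (directed soil spray) and, simultaneously, postemergence at 2–10 cm, one- to two-leaf stage, using compounds in non-phytotoxic solvent with surfactant. After ~10 days in greenhouse, injury was rated visually versus untreated controls, 0 (no effect) to 100 (complete control).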

[2] = test system: crabgrass, large (large crabgrass, Digitaria sanguinalis); assay: Test A pre-/postemergence: crabgrass, large; conditions: for Crabgrass, Large plant response rating: Postemergence; for Plant response rating, Crabgrass, Large: Preemergence
How it was run: as §1

corn (Zea mays) = assay: Test A pre-/postemergence: corn; conditions: for Corn plant response rating: Postemergence; for Plant response rating, Corn: Preemergence
How it was run: as §1

[3] = test system: morningglory (Ipomoea spp.); assay: Test A pre-/postemergence: morningglory; conditions: for Morningglory plant response rating: Postemergence; for Plant response rating, Morningglory: Preemergence
How it was run: as §1

[4] = test system: barnyardgrass (Echinochloa crus-galli); assay: Test A pre-/postemergence: barnyardgrass; conditions: for Barnyardgrass plant response rating: Postemergence; for Plant response rating, Barnyardgrass: Preemergence
How it was run: as §1

[5] = test system: ducksalad (Heteranthera limosa); assay: Test C flooded paddy test: ducksalad; conditions: scale 0 to 100 (0 no effect, 100 complete control)
How it was run: (§2)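 Plants at 2-leaf stage in pots flooded 3 cm above soil; compounds applied directly into the paddy water, depth maintained. Visual rating against controls after 13–15 days in greenhouse, scale 0 (no effect) to 100 (complete control).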

rice (Oryza sativa) = assay: Test C flooded paddy test: rice; conditions: scale 0 to 100 (0 no effect, 100 complete control)
How it was run: as §2

[6] = test system: pigweed (Amaranthus retroflexus); assay: Test A pre-/postemergence: pigweed; conditions: for Pigweed plant response rating: Postemergence; for Plant response rating, Pigweed: Preemergence
How it was run: as §1

[7] = test system: sedge, umbrella (small-flower umbrella sedge, Cyperus difformis); assay: Test C flooded paddy test: sedge, umbrella; conditions: scale 0 to 100 (0 no effect, 100 complete control)
How it was run: as §2

[8] = test system: wheat (Triticum aestivum); assay: Test A pre-/postemergence: wheat; conditions: for Wheat plant response rating: Postemergence; for Plant response rating, Wheat: Preemergence
How it was run: as §1

[9] = test system: barnyardgrass (Echinochloa crus-galli); assay: Test C flooded paddy test: barnyardgrass; conditions: scale 0 to 100 (0 no effect, 100 complete control)
How it was run: as §2

[10] = test system: foxtail, giant (giant foxtail, Setaria faberii); assay: Test A pre-/postemergence: foxtail, giant; conditions: for Foxtail, Giant plant response rating: Postemergence; for Plant response rating, Foxtail, Giant: Preemergence
How it was run: as §1

[11] = 125 g ai/ha, 0 to 100 scale, 0 is no effect, 100 is complete control
[12] = 500 g ai/ha, visual rating on 0 to 100 scale (0 no effect, 100 complete control), approximately ten days
[13] = 125 g ai/ha, 0 to 100 scale where 0 is no effect and 100 is complete control
[14] = 500 g ai/ha, 0 to 100 scale, 0 is no effect, 100 is complete control
[15] = 125 g ai/ha, 0 to 100 scale (0 no effect, 100 complete control)
[16] = Flood (flooded paddy test), 125 g ai/ha, visual rating after 13 to 15 days
[17] = Flood (flooded paddy test), 250 g ai/ha, visual rating after 13 to 15 days
[18] = Flood (flooded paddy test), 62 g ai/ha, visual rating after 13 to 15 days

Cc1nn(-c2ccc(F)cc2)nc1Oc1ccnc(C(F)(F)F)n1 [Compound 101]
Velvetleaf plant response rating [1, 11]: 10 | Velvetleaf plant response rating [1, 12]: 20 | Plant response rating, Velvetleaf [1, 13]: 0 | Plant response rating, Velvetleaf [1, 14]: 0 | Crabgrass, Large plant response rating [2, 11]: 70 | Crabgrass, Large plant response rating [2, 12]: 90 | Plant response rating, Crabgrass, Large [2, 15]: 100 | Plant response rating, Crabgrass, Large [2, 14]: 100 | Corn plant response rating (corn (Zea mays); [11]): 10 | Corn plant response rating (corn (Zea mays); [12]): 20 | Plant response rating, Corn (corn (Zea mays); [15]): 0 | Plant response rating, Corn (corn (Zea mays); [14]): 10 | Morningglory plant response rating [3, 11]: 40 | Morningglory plant response rating [3, 12]: 40 | Plant response rating, Morningglory [3, 13]: 0 | Plant response rating, Morningglory [3, 14]: 10 | Barnyardgrass plant response rating [4, 11]: 20 | Barnyardgrass plant response rating [4, 12]: 60 | Plant response rating, Barnyardgrass [4, 15]: 50 | Plant response rating, Barnyardgrass [4, 14]: 80 | Plant response rating, Ducksalad [5, 16]: 50 | Plant response rating, Ducksalad [5, 17]: 65 | Plant response rating, Ducksalad ([5]; Flood, 31 g ai/ha): 0 | Plant response rating, Ducksalad ([5]; Flood, 62 g ai/ha): 20 | Plant response rating, Rice (rice (Oryza sativa); [16]): 15 | Plant response rating, Rice (rice (Oryza sativa); [17]): 20 | Plant response rating, Rice (rice (Oryza sativa); Flood, 31 g ai/ha): 0 | Plant response rating, Rice (rice (Oryza sativa); Flood, 62 g ai/ha): 0 | Pigweed plant response rating [6, 11]: 80 | Pigweed plant response rating [6, 12]: 90 | Plant response rating, Pigweed [6, 13]: 100 | Plant response rating, Pigweed [6, 14]: 100 | Plant response rating, Sedge, Umbrella [7, 16]: 50 | Plant response rating, Sedge, Umbrella [7, 17]: 75 | Plant response rating, Sedge, Umbrella ([7]; Flood, 31 g ai/ha): 0 | Plant response rating, Sedge, Umbrella ([7]; Flood, 62 g ai/ha): 0 | Wheat plant response rating [8, 11]: 0 | Wheat plant response rating [8, 12]: 10 | Plant response rating, Wheat [8, 13]: 0 | Plant response rating, Wheat [8, 14]: 0 | Plant response rating, Barnyardgrass [9, 16]: 55 | Plant response rating, Barnyardgrass [9, 17]: 60 | Plant response rating, Barnyardgrass ([9]; Flood, 31 g ai/ha): 0 | Plant response rating, Barnyardgrass ([9]; Flood, 62 g ai/ha): 0 | Foxtail, Giant plant response rating [10, 11]: 70 | Foxtail, Giant plant response rating [10, 12]: 90 | Plant response rating, Foxtail, Giant [10, 13]: 100 | Plant response rating, Foxtail, Giant [10, 14]: 100

Cc1nn(-c2ccc(C(F)(F)F)cc2)nc1Sc1cccc(C(F)(F)F)c1 [Compound 88]
Velvetleaf plant response rating [1, 11]: 10 | Velvetleaf plant response rating [1, 12]: 80 | Plant response rating, Velvetleaf [1, 15]: 0 | Plant response rating, Velvetleaf [1, 14]: 0 | Crabgrass, Large plant response rating [2, 11]: 30 | Crabgrass, Large plant response rating [2, 12]: 80 | Plant response rating, Crabgrass, Large [2, 15]: 0 | Plant response rating, Crabgrass, Large [2, 14]: 50 | Corn plant response rating (corn (Zea mays); [11]): 0 | Corn plant response rating (corn (Zea mays); [12]): 10 | Plant response rating, Corn (corn (Zea mays); [15]): 0 | Plant response rating, Corn (corn (Zea mays); [14]): 0 | Morningglory plant response rating [3, 11]: 10 | Morningglory plant response rating [3, 12]: 50 | Plant response rating, Morningglory [3, 15]: 0 | Plant response rating, Morningglory [3, 14]: 0 | Barnyardgrass plant response rating [4, 11]: 10 | Barnyardgrass plant response rating [4, 12]: 20 | Plant response rating, Barnyardgrass [4, 15]: 0 | Plant response rating, Barnyardgrass [4, 14]: 10 | Plant response rating, Ducksalad [5, 16]: 0 | Plant response rating, Ducksalad [5, 17]: 0 | Plant response rating, Ducksalad ([5]; Flood, 31 g ai/ha): 0 | Plant response rating, Ducksalad ([5]; Flood, 62 g ai/ha): 0 | Plant response rating, Rice (rice (Oryza sativa); [16]): 0 | Plant response rating, Rice (rice (Oryza sativa); [17]): 0 | Plant response rating, Rice (rice (Oryza sativa); Flood, 31 g ai/ha): 0 | Plant response rating, Rice (rice (Oryza sativa); Flood, 62 g ai/ha): 0 | Pigweed plant response rating [6, 11]: 80 | Pigweed plant response rating [6, 12]: 100 | Plant response rating, Pigweed [6, 15]: 0 | Plant response rating, Pigweed [6, 14]: 50 | Plant response rating, Sedge, Umbrella [7, 16]: 0 | Plant response rating, Sedge, Umbrella [7, 17]: 0 | Plant response rating, Sedge, Umbrella ([7]; Flood, 31 g ai/ha): 0 | Plant response rating, Sedge, Umbrella ([7]; Flood, 62 g ai/ha): 0 | Wheat plant response rating [8, 11]: 0 | Wheat plant response rating [8, 12]: 10 | Plant response rating, Wheat [8, 15]: 0 | Plant response rating, Wheat [8, 14]: 0 | Plant response rating, Barnyardgrass [9, 16]: 0 | Plant response rating, Barnyardgrass [9, 17]: 0 | Plant response rating, Barnyardgrass ([9]; Flood, 31 g ai/ha): 0 | Plant response rating, Barnyardgrass ([9]; Flood, 62 g ai/ha): 0 | Foxtail, Giant plant response rating [10, 11]: 10 | Foxtail, Giant plant response rating [10, 12]: 40 | Plant response rating, Foxtail, Giant [10, 15]: 0 | Plant response rating, Foxtail, Giant [10, 14]: 40

Cc1nn(-c2ccc(C(F)(F)F)cc2)nc1Cn1cc(C(F)(F)F)nc1Cl [Compound 9]
Velvetleaf plant response rating [1, 11]: 60 | Velvetleaf plant response rating [1, 12]: 80 | Plant response rating, Velvetleaf [1, 15]: 30 | Plant response rating, Velvetleaf [1, 14]: 50 | Crabgrass, Large plant response rating [2, 11]: 60 | Crabgrass, Large plant response rating [2, 12]: 70 | Plant response rating, Crabgrass, Large [2, 15]: 90 | Plant response rating, Crabgrass, Large [2, 14]: 100 | Corn plant response rating (corn (Zea mays); [11]): 20 | Corn plant response rating (corn (Zea mays); [12]): 30 | Plant response rating, Corn (corn (Zea mays); [15]): 0 | Plant response rating, Corn (corn (Zea mays); [14]): 10 | Morningglory plant response rating [3, 11]: 70 | Morningglory plant response rating [3, 12]: 100 | Plant response rating, Morningglory [3, 15]: 50 | Plant response rating, Morningglory [3, 14]: 60 | Barnyardgrass plant response rating [4, 11]: 50 | Barnyardgrass plant response rating [4, 12]: 60 | Plant response rating, Barnyardgrass [4, 15]: 30 | Plant response rating, Barnyardgrass [4, 14]: 70 | Plant response rating, Ducksalad [5, 18]: 0 | Plant response rating, Ducksalad [5, 17]: 0 | Plant response rating, Rice (rice (Oryza sativa); [18]): 0 | Plant response rating, Rice (rice (Oryza sativa); [17]): 0 | Pigweed plant response rating [6, 11]: 90 | Pigweed plant response rating [6, 12]: 100 | Plant response rating, Pigweed [6, 15]: 90 | Plant response rating, Pigweed [6, 14]: 100 | Plant response rating, Sedge, Umbrella [7, 18]: 40 | Plant response rating, Sedge, Umbrella [7, 17]: 85 | Wheat plant response rating [8, 11]: 0 | Wheat plant response rating [8, 12]: 20 | Plant response rating, Wheat [8, 15]: 0 | Plant response rating, Wheat [8, 14]: 0 | Plant response rating, Barnyardgrass [9, 18]: 0 | Plant response rating, Barnyardgrass [9, 17]: 30 | Foxtail, Giant plant response rating [10, 11]: 50 | Foxtail, Giant plant response rating [10, 12]: 70 | Plant response rating, Foxtail, Giant [10, 15]: 80 | Plant response rating, Foxtail, Giant [10, 14]: 90
